Data taken from patent publication US20060051436A1, “Composition for controlling excessive calorie intake-induced disorder, food product for controlling excessive calorie intake-induced disorder, skin preparation for external use for controlling excessive calorie intake-induced disorder, and controlling agent for excessive calorie intake-induced …” (Towa Corporation Kabushiki Kaisha, priority 2004, published 2006).
Marks after values point to notes of the source that are not given here.

Columns and labels:
[1] = system: Otsuka Long-Evans Tokushima Fatty (OLETF) rats; assay: Serum and lipoprotein fraction cholesterol, phospholipid, triglyceride in OLETF rats; format: in vivo, rat; conditions: end of six-week experiment, M±SE
Experimental: Six week after the initiation of the experiment, without prior abstinence from feed, each rat was anesthetized by administering approximately 50 mg/kg of pentobarbital sodium (product of Dainippon Pharmaceutical Co., Ltd.) into the abdominal cavity to remove all of its blood via the abdominal aorta with an injection syringe. This operation was performed during the period from 10:00 am to 12:00 am. The blood obtained by the operation was set aside for 1 hour at room temperature and subsequently at 4° C. for a period in the range of 1 to 2 hours. Thereafter, blood serum was separated by means of centrifugation at 2500 rpm at 4° C. for 10 minutes. Fractions of various lipoproteins were separated from the blood serum obtained at the time of whole blood extraction. […] Therefore, it is not possible with step-wise density gradient ultracentrifugation employed for this experiment to exclusively separate native LDL, and the LDL fraction separated in this stage contains HDL1 that existed together with LDL. The cholesterol, phospholipid, and triglyceride contents in the serum and each lipoprotein fraction were enzymatically measured with commercial kits (Cholesterol E-Test Wako, Phospholipid C-Test Wako, and Triglyceride E-Test Wako; products of Wako Pure Chemical Industries, Ltd.), respectively.

[2] = system: Otsuka Long-Evans Tokushima Fatty (OLETF) rats; assay: Liver weight ratio and liver lipid contents in OLETF rats; format: in vivo, rat; conditions: end of six-week experiment, M±SE
Experimental: Immediately after the extraction of all the blood, the liver was quickly removed from all the rats in each group, and the wet weight of each liver was measured. The liver weight ratio of each rat is shown in terms of the liver weight per unit of body weight (100 g) at the time of removal. Extraction of lipid from each liver was performed in accordance with the method described in “A simple method for the isolation and purification of total lipids from animal tissues” (Folch and two other members, Journal of Biological Chemistry, vol. 226, p 497-509, 1957). A part of the lower layer of the liquid liver extract (the chloroform-containing layer) was separated, and the chloroform contained therein was evaporated under nitrogen gas current. The liquid with the chloroform removed was used as a sample for measuring liver lipid contents. The cholesterol, phospholipid, and triglyceride contents in the liver were enzymatically measured with commercial kits (Cholesterol E-Test Wako, Phospholipid C-Test Wako, and Triglyceride E-Test Wako; products of Wako Pure Chemical Industries, Ltd.), respectively.

[3] = system: Otsuka Long-Evans Tokushima Fatty (OLETF) rats; assay: Serum glucose, free fatty acids and insulin in OLETF rats; format: in vivo, rat; conditions: end of six-week experiment, M±SE
Experimental: Six week after the initiation of the experiment, without prior abstinence from feed, each rat was anesthetized by administering approximately 50 mg/kg of pentobarbital sodium (product of Dainippon Pharmaceutical Co., Ltd.) into the abdominal cavity to remove all of its blood via the abdominal aorta with an injection syringe. This operation was performed during the period from 10:00 am to 12:00 am. The blood obtained by the operation was set aside for 1 hour at room temperature and subsequently at 4° C. for a period in the range of 1 to 2 hours. Thereafter, blood serum was separated by means of centrifugation at 2500 rpm at 4° C. for 10 minutes. Furthermore, the glucose and free fatty acid content in he serum were enzymatically measured with commercial kits (Glucose CII-Test Wako and NEFA C-Test Wako; products of Wako Pure Chemical Industries, Ltd.), respectively. The serum insulin content was determined in accordance with the Sandwich ELISA (enzyme-linked immunosorbent assay) method using a Rat insulin ELISA kit (product of Shibayagi Co., Ltd.). Therefore, the insulin content is shown in terms of Immuno-reactive insulin (IRI; pg/ml).

[4] = system: cholesterol 7α-hydroxylase; assay: 7α-hydroxylase activity in liver microsome fraction of OLETF rats; format: in vivo, rat; conditions: M±SE
Experimental: Purified liver microsome fraction was produced according to a normal method, and the cholesterol in the liver microsome fraction was used as the substrate. The activity of cholesterol 7α-hydroxylase was determined by HPLC in accordance with the method described in “An improved method for assay of cholesterol 7α-hydroxylase activity” by Tadashi Ogishima and one other member (USA, Analytical Biochemistry, vol. 158, p 228-232, 1986). The results of measurement of 7α-hydroxylase activity are shown in terms of the amount of HCO (7α-hydroxy-4-cholesten-3-on) generated per 1 mg of protein content in one minute in the microsome fraction (pmol/min/mg of microsome protein).

[5] = Body weight and food intake of OLETF rats; format: in vivo, rat; conditions: M±SE
Description: The rats that were the subjects of the experiment were divided into three groups: a Control group to be fed a control diet, a Hercampuri group to be fed a Hercampuri-enriched diet, and an Acarbose group to be fed an Acarbose-enriched diet. […] This control diet was purified animal feed containing casein as the source of protein. The Hercampuri-enriched diet fed to the rats in the Hercampuri group was produced by adding Hercampuri extract powder at a mixing ratio of 2% to the control diet. The Acarbose-enriched diet fed to the rats in the Acarbose group was produced by adding Acarbose (product of Bayer AG) at a mixing ratio of 0.2% to the control diet. For each experimental diet, the amount of the added subject ingredient was compensated for by adjusting the amount of corn starch. Male OLETF rats and LETO rats delivered from Tokushima Research Institute of Otsuka Pharmaceutical Co., Ltd. were used as the subject animals. Each one of these OLETF rats and LETO rats was born during the period of June 10th to June 13th in 2002. […] The rats had free access to feed (CE-2: product of Clea Japan, Inc.) and drinking water (tap water). […] During the experiment, the body weights and the amounts of food intake were measured every other day. […]

[6] = system: Otsuka Long-Evans Tokushima Fatty (OLETF) rats; assay: Serum apolipoprotein contents in OLETF rats; format: in vivo, rat; conditions: M±SE
Experimental: The respective contents of various apolipoproteins, i.e. apoA-I, apoB, and apoE, as well as the respective apoE contents in the LDL and HDL fractions, were determined by the rocket immunoelectrophoresis method described in “Age-related changes in serum concentrations of apolipoprotein A-I, E, and A-IV in SHRSP” by Hiroshi Ogawa and 4 other members (G.B., Journal of Hypertension, vol. 4, p 429-453, 1986). The aforementioned immunoelectrophoresis method is in accordance with the Laurell method and adjustment of a part of the method presented by C. B. Laurell in “Quantitative estimation of proteins by electrophoresis in agarose-gel containing antibodies” (USA, Analytical Biochemistry, vol. 15, p 42-52, 1966). The antibodies used for this measurement were specific antibodies obtained from rabbits by using antigens that were various apolipoproteins separated and refined from rat serum. Furthermore, apoB/apoA-I was calculated from the results of measurement of apoA-I and apoB.

[7] = system: streptozotocin (STZ)-induced diabetic rats; conditions: Planta Medica 1994, 1995; cited from earlier work

SMILES	Serum Cholesterol [1]	Serum Phospholipid [1]	Serum Triglyceride [1]	Liver Cholesterol [2] [mg/wet g]	Liver Phospholipid [2] [mg/wet g]	Liver Triglyceride [2] [mg/wet g]	Liver weight [2] [g/100 g B.W.]	Serum FFA [3]	Serum Glucose [3]	Serum IRI (immuno-reactive insulin) [3]	7α-hydroxylase [4] [nmol/min/mg protein]	Food intake ([5]; average over six weeks)	Body weight ([5]; end of six-week experiment)	ApoB/apoA-I (×100) ([6]; calculated from apoA-I and apoB)	Serum apoA-I ([6]; end of six-week experiment)	Serum apoB ([6]; end of six-week experiment)	Serum apoE ([6]; end of six-week experiment)	Blood sugar levels [7]
C[C@H]1O[C@H](O[C@H]2[C@H](O)[C@@H](O)[C@@H](O[C@H]3[C@H](O)[C@@H](O)C(O)O[C@@H]3CO)O[C@@H]2CO)[C@H](O)[C@@H](O)[C@@H]1N[C@H]1C=C(CO)[C@@H](O)[C@H](O)[C@H]1O (stereo partly drawn) [Acarbose]	150 ± 11^b mg/dL	178 ± 10^b mg/dL	55.6 ± 1.7^c mg/dL	5.39	32.9	75.4	3.40	751 ± 38^c μEq/L	193 ± 12^c mg/dL	665 ± 231^b pg/mL	34.5	12.9 ± 0.9^a g/rat/day	639 ± 14^b g	3.15 ± 0.06^c	126 ± 4^a mg/dL	3.95 ± 0.14^b mg/dL	55.5 ± 2.7^b mg/dL	–
COc1cc(O)c2c(=O)c3c(O)ccc(O)c3oc2c1 [Bellidifolin]	–	–	–	–	–	–	–	–	–	–	–	–	–	–	–	–	–	has a function of reducing blood sugar levels
